The values that follow come from US9328128B2 (priority 2010, dated 2016).

Series [1] concerns rat alkaline phosphatase. Briefly: p-nitrophosphate hydrolysis by rat alkaline phosphatase. It counts as biochemical. How it is done:
The results shown in Example A used a 3-second exposure of vesicles and substrates and a 5 minute exposure of vesicles to 2′-FPP. Prior exposure and degradation of 2′-PP in contrast to 2′-FPP could be contributing to the increased potency of 2′-FPP as compared to 2′-PP. To examine this possibility the effect of phosphophloretins on p-nitrophosphate hydrolysis by rat alkaline phosphatase and intestinal BBMV phosphatases was examined.

The target of series [2] is T1, intestinal brush border membrane Na/phosphate cotransporter, NaPi 2b (Rattus norvegicus, UniProt Q9JJ09).
T1 construct: Rat duodenum/jejunum intestinal strips 1 cm square were incubated in DMEM; from tissue; host or cells: rat duodenum/jejunum intestinal strips
T1 sequence (Q9JJ09 1-695): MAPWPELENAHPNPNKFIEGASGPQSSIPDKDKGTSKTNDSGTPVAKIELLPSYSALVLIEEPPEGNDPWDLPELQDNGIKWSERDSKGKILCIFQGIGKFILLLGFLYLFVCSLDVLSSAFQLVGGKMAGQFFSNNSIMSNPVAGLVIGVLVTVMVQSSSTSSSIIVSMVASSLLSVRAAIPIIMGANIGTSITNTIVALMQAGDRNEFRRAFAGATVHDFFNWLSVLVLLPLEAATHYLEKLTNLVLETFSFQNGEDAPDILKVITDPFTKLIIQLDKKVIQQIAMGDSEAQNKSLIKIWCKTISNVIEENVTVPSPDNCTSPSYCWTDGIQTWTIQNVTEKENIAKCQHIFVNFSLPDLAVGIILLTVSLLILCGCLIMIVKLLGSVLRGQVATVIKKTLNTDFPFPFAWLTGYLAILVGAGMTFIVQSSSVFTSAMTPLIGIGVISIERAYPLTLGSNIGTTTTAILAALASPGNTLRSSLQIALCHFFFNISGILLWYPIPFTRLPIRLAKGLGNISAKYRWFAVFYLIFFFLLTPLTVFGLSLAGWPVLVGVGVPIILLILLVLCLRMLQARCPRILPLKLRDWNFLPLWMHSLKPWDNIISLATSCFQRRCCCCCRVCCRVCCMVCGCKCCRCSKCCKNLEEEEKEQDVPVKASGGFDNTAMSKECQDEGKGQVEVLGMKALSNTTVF
The series can be described thus: cell-based. In kind it is cell-based.

Series [3] has as its system intestinal BBMV phosphatases. In kind it is biochemical.
Series [4] concerns the target T2, intestinal Na-phosphate cotransporter (Rattus norvegicus, UniProt Q9JJ09).
T2 sequence (Q9JJ09 1-695): T1 sequence (Q9JJ09 1-695)
In kind it is biochemical. Details: other: intestinal BBMV; 3-second exposure of vesicles and substra; 2′-FPP vs 2′-PP. Conditions: read-out: IC50 for inhibition of Na-dependent phosphate uptake.

The conditions of series [5]: rat, in vivo.
The conditions of series [6]: rat, in vivo. This is another data set of the same source.
The target in series [7] is T2, intestinal Na-phosphate cotransporter. In kind it is biochemical.
Series [8] has as its system Glucose uptake. In kind it is cell-based, rat.

What is called pIC50 is the negative decadic logarithm of the IC50, by convention in mol/L.

pIC50: −log10 of the molar value.

For `O=C(CCc1ccc(O)cc1)c1c(O)cc(O)cc1OP(=O)(O)O`, the “inhibition of alkaline phosphatase activity, compared with 2′-FPP” value in series [1] is listed as “better inhibitor”. In series [2], the negative logarithm of the IC50 (pIC50) was 4.82, the “Maximum inhibition of total phosphate absorption” value was 43±6%, the “inhibition of phosphate uptake” value was determined as 40% and the “inhibition of phosphate uptake 6 hours post-drug exposure” value was “less than 35%”. Also, the “inhibition of intestinal BBMV phosphatase activity” value in series [3] is recorded as “approximately 50%”. Moreover, the pIC50 in series [4] is 7.34. For the same molecule, the side effects result in series [5] is “no side effects”. In addition, in series [6], the “change in serum Ca2+” value is listed as “no change” and the “decrease in serum phosphorus” value worked out at 30%. For the same molecule, the “decrease of IC50 on addition of alkaline phosphatase inhibitors” value in series [7] is reported as 34%. Moreover, in series [8], the Glucose uptake entry is recorded as “unaffected”.
